One assay deals with JH2 domain of human Tyk2 (Homo sapiens (Human), UniProt P29597). Nature of the assay: JH2 Biochemical Assay (TR-FRET probe displacement). It counts as binding. The note with it: JH2 domain of human Tyk2, TR-FRET probe displacement. In general terms: TR-FRET usually uses a lanthanide donor and a delayed reading to cut background.
The next assay concerns the target Tyk2 (Homo sapiens (Human), UniProt P29597). Nature of the assay: pSTAT4 Cell Assay (MSD, NK92 cells). The class given is cell-based. The note with it: MSD.

This is an account of results in patent US20260028365A1 (BIOGEN MA INC., priority 2022, published 2026).

Chain of Tyk2 (P29597 whole entry): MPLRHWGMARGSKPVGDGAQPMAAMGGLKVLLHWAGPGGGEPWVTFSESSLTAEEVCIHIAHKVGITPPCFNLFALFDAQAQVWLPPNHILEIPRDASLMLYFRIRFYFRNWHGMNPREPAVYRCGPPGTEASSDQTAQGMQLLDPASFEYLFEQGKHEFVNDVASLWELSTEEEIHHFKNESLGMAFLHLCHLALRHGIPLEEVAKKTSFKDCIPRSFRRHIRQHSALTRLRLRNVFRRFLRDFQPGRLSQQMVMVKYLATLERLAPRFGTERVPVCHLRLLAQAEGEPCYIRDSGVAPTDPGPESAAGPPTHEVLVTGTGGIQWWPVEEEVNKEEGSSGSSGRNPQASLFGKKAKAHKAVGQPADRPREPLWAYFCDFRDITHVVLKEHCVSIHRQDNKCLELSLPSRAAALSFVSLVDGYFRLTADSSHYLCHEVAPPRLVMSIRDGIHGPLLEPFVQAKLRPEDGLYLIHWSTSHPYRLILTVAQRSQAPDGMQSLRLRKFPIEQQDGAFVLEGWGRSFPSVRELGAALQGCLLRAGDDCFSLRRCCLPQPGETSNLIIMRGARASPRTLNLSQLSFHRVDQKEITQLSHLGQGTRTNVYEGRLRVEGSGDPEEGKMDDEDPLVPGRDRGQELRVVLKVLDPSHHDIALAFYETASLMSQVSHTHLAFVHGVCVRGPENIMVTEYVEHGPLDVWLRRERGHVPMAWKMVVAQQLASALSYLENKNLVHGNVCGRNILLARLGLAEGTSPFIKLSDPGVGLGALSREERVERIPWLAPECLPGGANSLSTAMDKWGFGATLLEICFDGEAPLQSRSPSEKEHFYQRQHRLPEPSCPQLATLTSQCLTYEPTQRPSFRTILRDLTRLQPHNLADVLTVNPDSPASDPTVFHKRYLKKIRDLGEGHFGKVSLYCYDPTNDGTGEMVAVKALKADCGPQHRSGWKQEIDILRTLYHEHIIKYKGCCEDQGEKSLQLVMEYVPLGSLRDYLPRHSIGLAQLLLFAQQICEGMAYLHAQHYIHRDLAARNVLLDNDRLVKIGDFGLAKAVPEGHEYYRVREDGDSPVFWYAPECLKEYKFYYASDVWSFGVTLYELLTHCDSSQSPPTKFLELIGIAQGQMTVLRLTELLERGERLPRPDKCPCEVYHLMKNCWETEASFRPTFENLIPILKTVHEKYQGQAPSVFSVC
Chain of JH2 domain of human Tyk2 (P29597 575-876): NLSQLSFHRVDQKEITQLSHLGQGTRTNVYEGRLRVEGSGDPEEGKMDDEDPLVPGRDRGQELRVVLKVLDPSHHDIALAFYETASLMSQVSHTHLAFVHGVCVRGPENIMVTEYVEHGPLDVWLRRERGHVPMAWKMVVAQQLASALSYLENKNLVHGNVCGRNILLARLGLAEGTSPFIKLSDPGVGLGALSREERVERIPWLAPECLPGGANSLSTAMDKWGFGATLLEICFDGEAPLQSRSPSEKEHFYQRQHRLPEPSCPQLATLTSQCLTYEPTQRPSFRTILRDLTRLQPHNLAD

The IC50 is the point on the concentration scale where inhibition reaches its midpoint. For the compound `COc1nn(C)cc1COc1cnc(NC(C)=O)cc1Nc1cc(C)nc(C(C)(F)F)n1` [Example 512, N-(4-((2-(1,1-difluoroethyl)-6-methylpyrimidin-4-yl)amino)-5-((3-methoxy-1-methyl-1H-pyrazol-4-yl)methoxy)pyridin-2-yl)acetamide], the 50% inhibitory concentration (IC50) at JH2 domain of human Tyk2 and at Tyk2 was 100 to 1000 nM each time.
Take `CO[C@H]1CC[C@@H](Oc2cnc(NC(C)=O)cc2Nc2cc(C)nc(C(C)(F)F)n2)C1` [Example 513, N-(4-((2-(1,1-difluoroethyl)-6-methylpyrimidin-4-yl)amino)-5-(((1R,3S)-3-methoxycyclopentyl)oxy)pyridin-2-yl)acetamide]: the IC50 at JH2 domain of human Tyk2 is at most 10 nM; against Tyk2 it was 10 to 100 nM.
For the compound `CC(=O)Nc1cc(Nc2cc(C)nc(C(C)(F)F)n2)c(OC[C@]23C[C@](C)(CO2)C3)cn1` [Example 514, N-(4-((2-(1,1-difluoroethyl)-6-methylpyrimidin-4-yl)amino)-5-(((1s,4s)-4-methyl-2-oxabicyclo[2.1.1]hexan-1-yl)methoxy)pyridin-2-yl)acetamide], the IC50 on JH2 domain of human Tyk2 and against Tyk2 was at most 10 nM throughout.
`CCOc1cnc(NC(C)=O)cc1Nc1cc(C)nc(C(F)(F)CC)n1` [Example 516, N-(4-((2-(1,1-difluoropropyl)-6-methylpyrimidin-4-yl)amino)-5-ethoxypyridin-2-yl)acetamide]: the results for the 50% inhibitory concentration (IC50) on JH2 domain of human Tyk2 and on Tyk2 were at most 10 nM and 100 to 1000 nM, respectively.
In the case of `CCOc1cnc(NC(C)=O)cc1Nc1cc(O[C@H]2C[C@H](OC)C2)nc(C)n1` [Example 519, N-(5-ethoxy-4-((6-((1r,3r)-3-methoxycyclobutoxy)-2-methylpyrimidin-4-yl)amino)pyridin-2-yl)acetamide], the 50% inhibitory concentration (IC50) on JH2 domain of human Tyk2 and on Tyk2 was 100 to 1000 nM in each case.
With `CNC(=O)Nc1cc(Nc2cc(C)nc(C(C)(F)F)n2)c(-c2ccc(C#N)cn2)cn1` [Example 520, 1-(5-cyano-4′-((2-(1,1-difluoroethyl)-6-methylpyrimidin-4-yl)amino)-[2,3′-bipyridin]-6′-yl)-3-methylurea], the IC50 at JH2 domain of human Tyk2 and at Tyk2 was at most 10 nM in each case.
In the case of `COCCOc1ccc(-c2cnc(NC(C)=O)cc2Nc2ccnc(C(C)(F)F)n2)nc1` [Example 523, N-(4′-((2-(1,1-difluoroethyl)pyrimidin-4-yl)amino)-5-(2-methoxyethoxy)-[2,3′-bipyridin]-6′-yl)acetamide], the IC50 at JH2 domain of human Tyk2 and against Tyk2 was at most 10 nM in each case.
Consider `CC(=O)Nc1cc(Nc2cc(C)nc(C(C)(F)F)n2)c(-c2ccc(COC(F)F)cn2)cn1` [Example 524, N-(4′-((2-(1,1-difluoroethyl)-6-methylpyrimidin-4-yl)amino)-5-((difluoromethoxy)methyl)-[2,3′-bipyridin]-6′-yl)acetamide], for which the IC50 on JH2 domain of human Tyk2 and against Tyk2 was at most 10 nM in each case.
Turning to `CC(=O)Nc1cc(Nc2cccc(C(C)(F)F)n2)c(-c2ccc(C#N)cn2)cn1` [Example 525, N-(5-cyanO4′-((6-(1,1-difluoroethyl)pyridin-2-yl)amino)-[2,3′-bipyridin]-6′-yl)acetamide], the half-maximal inhibitory concentration (IC50) at JH2 domain of human Tyk2 is at most 10 nM; on Tyk2 it was 10 to 100 nM.
The matching figures for `COc1ccc(-c2cnc(NC(C)=O)cc2Nc2cccc(C(C)(F)F)n2)nn1` [Example 526, N-(4-((6-(1,1-difluoroethyl)pyridin-2-yl)amino)-5-(6-methoxypyridazin-3-yl)pyridin-2-yl)acetamide]: at most 10 nM and 10 to 100 nM.
For `[2H]C([2H])([2H])C(=O)Nc1cc(Nc2ccnc(C(C)(F)F)n2)c(-c2ccc(OC)nn2)cn1` [Example 527, N-(4-((2-(1,1-difluoroethyl)pyrimidin-4-yl)amino)-5-(6-methoxypyridazin-3-yl)pyridin-2-yl)acetamide-2,2,2-d3], the IC50 at JH2 domain of human Tyk2 and against Tyk2 was at most 10 nM each time.
Turning to `CC(=O)Nc1cc(Nc2ccnc(C(C)(F)F)n2)c(-c2cc3n(n2)CCOC3)cn1` [Example 529, N-(4-((2-(1,1-difluoroethyl)pyrimidin-4-yl)amino)-5-(6,7-dihydrO4H-pyrazolo[5,1-c][1,4]oxazin-2-yl)pyridin-2-yl)acetamide], the IC50 on JH2 domain of human Tyk2 and at Tyk2 was at most 10 nM each time.
For `CC(=O)Nc1cc(Nc2cc(C)nc(C(C)(C)F)n2)c(-c2cc3n(n2)CCOC3)cn1` [Example 530, N-(5-(6,7-dihydrO4H-pyrazolo[5,1-c][1,4]oxazin-2-yl)-4-((2-(2-fluoropropan-2-yl)-6-methylpyrimidin-4-yl)amino)pyridin-2-yl)acetamide], the 50% inhibitory concentration (IC50) on JH2 domain of human Tyk2 and at Tyk2 was at most 10 nM each time.
As for `CC(=O)Nc1cc(Nc2cc(C)nc(C(C)(C)F)n2)c(-c2cn3c(n2)COCC3)cn1` [Example 531, N-(5-(5,6-dihydrO8H-imidazo[2,1-c][1,4]oxazin-2-yl)-4-((2-(2-fluoropropan-2-yl)-6-methylpyrimidin-4-yl)amino)pyridin-2-yl)acetamide], the IC50 at JH2 domain of human Tyk2 and against Tyk2 was at most 10 nM each time.
Take `CC(=O)Nc1cc(Nc2cc(C)nc(C(C)(C)F)n2)c(-c2cn3cnnc3cn2)cn1` [Example 532, N-(5-([1,2,4]triazolo[4,3-a]pyrazin-6-yl)-4-((2-(2-fluoropropan-2-yl)-6-methylpyrimidin-4-yl)amino)pyridin-2-yl)acetamide]: the half-maximal inhibitory concentration (IC50) on JH2 domain of human Tyk2 was at most 10 nM; against Tyk2, 100 to 1000 nM.
The matching figures for `CC(=O)Nc1cc(Nc2cc(C)nc(C(C)(C)F)n2)c(-c2ccn3ccnc3n2)cn1` [Example 533, N-(4-((2-(2-fluoropropan-2-yl)-6-methylpyrimidin-4-yl)amino)-5-(imidazo[1,2-a]pyrimidin-7-yl)pyridin-2-yl)acetamide]: at most 10 nM and at most 10 nM.
The matching figures for `CC(=O)Nc1cc(Nc2cc(C)nc(C(C)(F)F)n2)c(-c2cnn3c2OCCC3)cn1` [Example 535, N-(4-((2-(1,1-difluoroethyl)-6-methylpyrimidin-4-yl)amino)-5-(6,7-dihydrO5H-pyrazolo[5,1-b][1,3]oxazin-3-yl)pyridin-2-yl)acetamide]: 10 to 100 nM and at least 1000 nM.
`CC(=O)Nc1cc(Nc2cc(C)nc(C(C)(F)F)n2)c(-c2ccn3ncnc3n2)cn1` [Example 536, N-(5-([1,2,4]triazolo[1,5-a]pyrimidin-5-yl)-4-((2-(1,1-difluoroethyl)-6-methylpyrimidin-4-yl)amino)pyridin-2-yl)acetamide]: the IC50 at JH2 domain of human Tyk2 and on Tyk2 was at most 10 nM throughout.
As to `CC(=O)Nc1cc(Nc2ccnc(C(C)(F)F)n2)c(-c2ccn3ncnc3n2)cn1` [Example 537, N-(5-([1,2,4]triazolo[1,5-a]pyrimidin-5-yl)-4-((2-(1,1-difluoroethyl)pyrimidin-4-yl)amino)pyridin-2-yl)acetamide], the IC50 at JH2 domain of human Tyk2 was at most 10 nM; at Tyk2 it was 10 to 100 nM.
For `CC(=O)Nc1cc(Nc2cc(C)nc(C(C)(C)F)n2)c(-c2ccn3nccc3n2)cn1` [Example 538, N-(4-((2-(2-fluoropropan-2-yl)-6-methylpyrimidin-4-yl)amino)-5-(pyrazolo[1,5-a]pyrimidin-5-yl)pyridin-2-yl)acetamide] the same measures were at most 10 nM and at most 10 nM.
For `CC(=O)Nc1cc(Nc2ccnc(C(C)(F)F)n2)c(-c2ccn3nccc3n2)cn1` [Example 539, N-(4-((2-(1,1-difluoroethyl)pyrimidin-4-yl)amino)-5-(pyrazolo[1,5-a]pyrimidin-5-yl)pyridin-2-yl)acetamide] the same measures were at most 10 nM and at most 10 nM.
In the case of `CC(=O)Nc1cc(Nc2cc(C)nc(C(C)(F)F)n2)c(-c2ccn3nccc3n2)cn1` [Example 540, N-(4-((2-(1,1-difluoroethyl)-6-methylpyrimidin-4-yl)amino)-5-(pyrazolo[1,5-a]pyrimidin-5-yl)pyridin-2-yl)acetamide], the IC50 on JH2 domain of human Tyk2 and at Tyk2 was at most 10 nM each time.
In the case of `CC(=O)Nc1cc(Nc2cc(C)nc(C(C)(F)F)n2)c(-c2cc3n(n2)CCN(C)C3=O)cn1` [Example 541, N-(4-((2-(1,1-difluoroethyl)-6-methylpyrimidin-4-yl)amino)-5-(5-methyl-4-oxO4,5,6,7-tetrahydropyrazolo[1,5-a]pyrazin-2-yl)pyridin-2-yl)acetamide], the IC50 was at most 10 nM on JH2 domain of human Tyk2 and 10 to 100 nM on Tyk2.
As for `CCS(=O)(=O)n1ccc(-c2cnc(NC(C)=O)cc2Nc2cc(C)nc(C(C)(F)F)n2)n1` [Example 542, N-(4-((2-(1,1-difluoroethyl)-6-methylpyrimidin-4-yl)amino)-5-(1-(ethylsulfonyl)-1H-pyrazol-3-yl)pyridin-2-yl)acetamide], the half-maximal inhibitory concentration (IC50) on JH2 domain of human Tyk2 and on Tyk2 was at most 10 nM each time.
In the case of `CC(=O)Nc1cc(Nc2cc(C)nc(C(C)(F)F)n2)c(-c2ccc(S(C)(=O)=O)cn2)cn1` [Example 543, N-(4′-((2-(1,1-difluoroethyl)-6-methylpyrimidin-4-yl)amino)-5-(methylsulfonyl)-[2,3′-bipyridin]-6′-yl)acetamide], the IC50 at JH2 domain of human Tyk2 and against Tyk2 was at most 10 nM each time.
As for `[2H]C([2H])([2H])N1CCn2nc(-c3cnc(NC(C)=O)cc3Nc3cc(C)nc(C(C)(F)F)n3)cc2C1` [Example 545, N-(4-((2-(1,1-difluoroethyl)-6-methylpyrimidin-4-yl)amino)-5-(5-(methyl-d3)-4,5,6,7-tetrahydropyrazolo[1,5-a]pyrazin-2-yl)pyridin-2-yl)acetamide], the IC50 on JH2 domain of human Tyk2 and against Tyk2 was at most 10 nM in each case.
Regarding `COCCOc1nccc(Nc2cc(NC(C)=O)ncc2-c2ccn(C)n2)n1` [Example 549, N-(4-((2-(2-methoxyethoxy)pyrimidin-4-yl)amino)-5-(1-methyl-1H-pyrazol-3-yl)pyridin-2-yl)acetamide], the IC50 is at most 10 nM on JH2 domain of human Tyk2 and 100 to 1000 nM against Tyk2.
As for `COCCOc1ccnc(Nc2cc(NC(C)=O)ncc2-c2ccn(C)n2)n1` [Example 550, N-(4-((4-(2-methoxyethoxy)pyrimidin-2-yl)amino)-5-(1-methyl-1H-pyrazol-3-yl)pyridin-2-yl)acetamide], the half-inhibitory concentration (IC50) at JH2 domain of human Tyk2 was at most 10 nM; at Tyk2, 100 to 1000 nM.
